Results: patent publication US8574831B2, “Mutational profiles in HIV-1 reverse transcriptase correlated with phenotypic drug resistance” (Virco N.V., priority 2000, dated 2013)

System: HIV with mutations in the HIV protease sequence
Assay: Phenotypic fold resistance to protease inhibitors, protease mutations 84A/84L/84C/54M/54L/54V in a background (Examples 8-13)
Assay type: cell-based, HIV-1
Outline: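 Fold-resistance equals chimeric-virus IC50 divided by IC50 of a parallel wild-type reference HIV-1 strain. Chimeras come from PCR-amplified PR/RT genes recombined into PR/RT-deleted HXB2 proviral DNA inside CD4+ T cells, then cultured with graded drug concentrations.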

With `CC(C)(C)NC(=O)[C@@H]1C[C@@H]2CCCC[C@@H]2CN1C[C@@H](O)[C@H](Cc1ccccc1)NC(=O)[C@H](CC(N)=O)NC(=O)c1ccc2ccccc2n1` [Saquinavir, saquinavir] the “mean fold increase in resistance” value (Table 9 #1, protease genotype WT) was 0.9 fold, the “mean fold increase in resistance” value (Table 9 #2, protease genotype 10I) was 0.9 fold and the “mean fold increase in resistance” value (Table 9 #3, protease genotype 46I) was 0.6 fold. The “mean fold increase in resistance” value (Table 9 #4, protease genotype 46I + 84V) was 2.5 fold, the “mean fold increase in resistance” value (Table 9 #5, protease genotype 46I + 84A) was 38.1 fold and the “mean fold increase in resistance” value (Table 9 #6, protease genotype 10I + 46I) was 0.5 fold. The “mean fold increase in resistance” value (Table 9 #7, protease genotype 10I + 46I + 84V) was 4.1 fold, the “mean fold increase in resistance” value (Table 9 #8, protease genotype 10I + 46I + 84A) was 48.2 fold and the “mean fold increase in resistance” value (Table 9 #9, protease genotype 10L/I + 46I + 84A) was 46.4 fold. The “mean fold increase in resistance” value (Table 9 #10, protease genotype 10I + 46I + 84A) was 42.8 fold, the “mean fold increase in resistance” value (Table 9 #11, protease genotype 46I + 71V) was 0.6 fold and the “mean fold increase in resistance” value (Table 9 #12, protease genotype 46I + 71V + 84V/I) was 0.6 fold. The “mean fold increase in resistance” value (Table 9 #13, protease genotype 46I + 71V + 84A) was 47.7 fold, the “mean fold increase in resistance” value (Table 9 #14, protease genotype 10F + 46I + 71V) was 1.9 fold and the “mean fold increase in resistance” value (Table 9 #15, protease genotype 10I + 46I + 71V + 84V) was 15.9 fold. For the same compound, the “mean fold increase in resistance” value (Table 9 #16, protease genotype 10I + 46I + 71V + 84A) was 48.2 fold, the “mean fold increase in resistance” value (Table 9 #17, protease genotype 10V + 46I + 71T + 84A) was 48.2 fold and the “mean fold increase in resistance” value (Table 9 #18, protease genotype 10I + 46I + 71V + 77I) was 1.3 fold. For the same compound, the “mean fold increase in resistance” value (Table 9 #19, protease genotype 10I + 46I + 71V + 77I + 84V) was 2.5 fold, the “mean fold increase in resistance” value (Table 9 #20, protease genotype 10I + 46I + 71V + 77I + 84A) was 47.1 fold and the “mean fold increase in resistance” value (Table 9 #21, protease genotype 10I + 33L/I + 46I + 71V + 77V/I + 84A) was 44.7 fold. The “mean fold increase in resistance” value (Table 10 #1, protease genotype 10I + 36I + 71V) was 1.6 fold, the “mean fold increase in resistance” value (Table 10 #2, protease genotype 10I + 36I + 71I + 84V) was 0.8 fold and the “mean fold increase in resistance” value (Table 10 #3, protease genotype 10I + 36I + 71I + 84L) was 10.2 fold. The “mean fold increase in resistance” value (Table 11 #1, protease genotype WT) was 0.9 fold, the “mean fold increase in resistance” value (Table 11 #2, protease genotype 84V) was 0.7 fold and the “mean fold increase in resistance” value (Table 11 #3, protease genotype 84C) was 26.4 fold. The “mean fold increase in resistance” value (Table 11 #4, protease genotype 10I) was 0.9 fold, the “mean fold increase in resistance” value (Table 11 #5, protease genotype 10I + 84V) was 2.7 fold and the “mean fold increase in resistance” value (Table 11 #6, protease genotype 10I + 84C) was 37.1 fold. The “mean fold increase in resistance” value (Table 11 #7, protease genotype 77I) was 0.3 fold, the “mean fold increase in resistance” value (Table 11 #8, protease genotype 77I + 84V) was 3.5 fold and the “mean fold increase in resistance” value (Table 11 #9, protease genotype 77I + 84C) was 18.1 fold. For the same compound, the “mean fold increase in resistance” value (Table 11 #10, protease genotype 77I + 84C) was 18.5 fold, the “mean fold increase in resistance” value (Table 11 #11, protease genotype 10I + 24I + 36I + 46I + 71V + 84C) was 46.4 fold and the “Fold change in IC50” value (Table 12, V19263, genotype 77I) was 0.3 fold. The “Fold change in IC50” value (Table 12, V20160, genotype WT) was 0.9 fold, the “Fold change in IC50” value (Table 12, V021667, genotype 10I) was 0.9 fold and the “Fold change in IC50” value (Table 12, V030496, genotype 10I + 77I) was 0.3 fold. For the same compound, the “Fold change in IC50” value (Table 12, V048869, genotype 10I + 54M + 77I + 90M) was 5.1 fold, the “Fold change in IC50” value (Table 12, V048872, genotype 33F + 54M + 77I + 90M) was 5.2 fold and the “Fold change in IC50” value (Table 12, V048873, genotype 33F + 54M + 77I + 90M) was 3.1 fold. The “Fold change in IC50” value (Table 12, V048877, genotype 10I + 33F + 77I + 90M) was 1.5 fold, the “Fold change in IC50” value (Table 12, V048878, genotype 10I + 33F + 54M + 71V + 77I + 90M) was 4.0 fold and the “Fold change in IC50” value (Table 12, V048879, genotype 10I + 33F + 54M + 71V + 77I + 90M) was 51.8 fold. The “Fold change in IC50” value (Table 12, V048880, genotype 10I + 33F + 77I + 90M) was 2.7 fold, the “Fold change in IC50” value (Table 12, V052940, genotype 71V) was 0.8 fold and the “Fold change in IC50” value (Table 12, V052942, genotype 10I + 71V) was 0.8 fold. The “Fold change in IC50” value (Table 12, V052943, genotype 10I + 90M) was 1.1 fold, the “Fold change in IC50” value (Table 12, V052944, genotype 10I + 90M) was 0.7 fold and the “Fold change in IC50” value (Table 12, V052945, genotype 77I + 90M) was 1.4 fold. For the same compound, the “Fold change in IC50” value (Table 12, V052946, genotype 71V + 90M) was 1.4 fold, the “Fold change in IC50” value (Table 12, V052947, genotype 10I + 77I + 90M) was 3.9 fold and the “Fold change in IC50” value (Table 12, V052948, genotype 10I + 71V + 90M) was 4.8 fold. For the same compound, the “Fold change in IC50” value (Table 12, V052949, genotype 10I + 71V + 77I + 90M) was 2.1 fold, the “Fold change in IC50” value (Table 12, V052950, genotype 33F) was 1.2 fold and the “Fold change in IC50” value (Table 12, V052951, genotype 33F + 77I) was 0.4 fold. The “Fold change in IC50” value (Table 12, V052953, genotype 10I + 33F + 77I) was 1.2 fold, the “Fold change in IC50” value (Table 12, V052954, genotype 33F + 77I + 90M) was 1.7 fold and the “Fold change in IC50” value (Table 12, V052955, genotype 33F + 71V + 90M) was 20.4 fold. The “Fold change in IC50” value (Table 12, V052977, genotype 10I + 33F + 54M) was 0.5 fold, the “Fold change in IC50” value (Table 12, V052978, genotype 10I + 33F + 54M + 71V + 90M) was 9.9 fold and the “Fold change in IC50” value (Table 12, V052979, genotype 10I + 54M) was 1.4 fold. For the same compound, the “Fold change in IC50” value (Table 12, V052980, genotype 10I + 54M + 90M) was 1.4 fold, the “Fold change in IC50” value (Table 12, V052981, genotype 10I + 54M + 71V + 90M) was 5.4 fold and the “Fold change in IC50” value (Table 12, V052982, genotype 10I + 54M + 71V + 77I + 90M) was 4.2 fold. For the same compound, the “Fold change in IC50” value (Table 12, V053832, genotype 10I + 33F) was 0.5 fold.
